Assay results as given in patent US6992079B2, “Substituted 11-phenyl-dibenzazepine compounds useful for the treatment or prevention of diseases characterized by abnormal cell proliferation” (President Fellows of Harvard College, priority 1997, dated 2006).
Like-named read-outs stand apart in the source and are kept apart here.

What was measured:
MDA-MB-23 = test: SRB antiproliferative assay; format: cell-based; conditions: Homo sapiens; MDA-MB-23 (Breast); SRB; 5% FCS/5 day incubation; read-out: IC50
From the text: (§1) The cells were passaged using Trypsin (Gibco).

MMRU = test: SRB antiproliferative assay; format: cell-based; conditions: Homo sapiens, MMRU (Melanoma), 5% FCS/5 day incubation
From the text: as §1

[1] = Preliminary toxicology, subcutaneous injection for 14 days; format: in vivo, CD-1 female mice; conditions: CD-1 female mice; 80 mg/kg/day s.c. 14 days
Procedure: The toxicological effects of CLT, and compounds 28, 30 and 31 were tested in CD-1 female mice. A dose of 80 mg/kg/day was given to each mouse via subcutaneous injection for a period of 14 days. Preliminary toxicological data was determined by measuring body weight, gross pathology of organs blood chemistry and histology. The vehicle used was DMF 12%+2% Tween 20 88%.

[2] = tested on: SU.86.86 pancreatic adenocarcinoma; test: Mouse xenograft tumor growth; format: in vivo, nude mice; conditions: SU.86.86 pancreatic adenocarcinoma mouse xenograft
[3] = tested on: panel of human cancer cells; test: In vitro screening, SRB, panel of 60 human cancer cell lines; format: cell-based
K-562 = test: In-Vitro Testing SRB panel: Leukemia; format: cell-based
RPMI-8226 = test: In-Vitro Testing SRB panel: Leukemia; format: cell-based
ROP-62 = format: cell-based
ROP-92 = format: cell-based
NCI-H23 = format: cell-based
HT29 = test: In-Vitro Testing SRB panel: Colon Cancer; format: cell-based
KM12 = test: In-Vitro Testing SRB panel: Colon Cancer; format: cell-based
LOX IMVI = test: In-Vitro Testing SRB panel: Melanoma; format: cell-based
M14 = test: In-Vitro Testing SRB panel: Melanoma; format: cell-based
SK-MEL-2 = test: In-Vitro Testing SRB panel: Melanoma; format: cell-based
A498 = test: In-Vitro Testing SRB panel: Renal Cancer; format: cell-based
RXF 393 = test: In-Vitro Testing SRB panel: Renal Cancer; format: cell-based
[4] = In-Vitro Testing SRB panel: Renal Cancer; format: cell-based
BT-549 = test: In-Vitro Testing SRB panel: Breast Cancer; format: cell-based

## COc1ccc2c(c1)CN(C(=O)c1ccc([N+](=O)[O-])cc1)c1ccc(Cl)cc1C2c1ccccc1Cl (stereo not shown) [Compound 30]
MDA-MB-23
  IC50: 0.9 µM
MMRU
  IC50: 0.5 µM
[1]
  Body Weight Change: 108%
  Liver Weight: 1.52 ± 0.23 g
  RBC: 8.2 ± 0.2 10^6/mm^3
  WBC: 6.4 ± 1.7 10^3/mm^3
  WBC, RBC, BUN and creatine levels: no differences were found
[2]
  tumor growth: showed inhibition of tumor growth
[3]
  activity against the human cell panel: exhibited activity against the human cell panel
K-562; Homo sapiens, K562
  GI50: 1.33 µM
K-562; Homo sapiens, K562, K-562, read-out: LC50 (the source's name)
  CC50: > 100 µM
K-562; K-562
  TGI: >1.00E−04 Molar
K-562; K-562, Log10 concentration −4.0 Molar
  Percent Growth: 17%
K-562; K-562, Log10 concentration −5.0 Molar
  Percent Growth: 24%
K-562; K-562, Log10 concentration −6.0 Molar
  Percent Growth: 54%
K-562; K-562, Log10 concentration −7.0 Molar
  Percent Growth: 86%
K-562; K-562, Log10 concentration −8.0 Molar
  Percent Growth: 99%
RPMI-8226; Homo sapiens, RPMI-8226
  GI50: 0.953 µM
RPMI-8226; Homo sapiens, RPMI-8226, read-out: LC50 (the source's name)
  CC50: > 100 µM
RPMI-8226; RPMI-8226
  TGI: >1.00E−04 Molar
RPMI-8226; RPMI-8226, Log10 concentration −4.0 Molar
  Percent Growth: 36%
RPMI-8226; RPMI-8226, Log10 concentration −5.0 Molar
  Percent Growth: 30%
RPMI-8226; RPMI-8226, Log10 concentration −6.0 Molar
  Percent Growth: 49%
RPMI-8226; RPMI-8226, Log10 concentration −7.0 Molar
  Percent Growth: 100%
RPMI-8226; RPMI-8226, Log10 concentration −8.0 Molar
  Percent Growth: 86%
ROP-62; Homo sapiens
  GI50: > 100 µM
ROP-62; Homo sapiens, ROP-62, read-out: LC50 (the source's name)
  CC50: > 100 µM
ROP-62; ROP-62
  TGI: >1.00E−04 Molar
ROP-62; ROP-62, Log10 concentration −4.0 Molar
  Percent Growth: 50%
ROP-62; ROP-62, Log10 concentration −5.0 Molar
  Percent Growth: 67%
ROP-62; ROP-62, Log10 concentration −6.0 Molar
  Percent Growth: 95%
ROP-62; ROP-62, Log10 concentration −7.0 Molar
  Percent Growth: 102%
ROP-62; ROP-62, Log10 concentration −8.0 Molar
  Percent Growth: 96%
ROP-92; Homo sapiens
  GI50: > 100 µM
ROP-92; Homo sapiens, ROP-92, read-out: LC50 (the source's name)
  CC50: > 100 µM
ROP-92; ROP-92
  TGI: >1.00E−04 Molar
ROP-92; ROP-92, Log10 concentration −4.0 Molar
  Percent Growth: 58%
ROP-92; ROP-92, Log10 concentration −5.0 Molar
  Percent Growth: 69%
ROP-92; ROP-92, Log10 concentration −6.0 Molar
  Percent Growth: 93%
ROP-92; ROP-92, Log10 concentration −7.0 Molar
  Percent Growth: 102%
ROP-92; ROP-92, Log10 concentration −8.0 Molar
  Percent Growth: 91%
NCI-H23; Homo sapiens, NCI-H23
  GI50: > 100 µM
NCI-H23; Homo sapiens, NCI-H23, read-out: LC50 (the source's name)
  CC50: > 100 µM
NCI-H23; NCI-H23
  TGI: >1.00E−04 Molar
NCI-H23; NCI-H23, Log10 concentration −4.0 Molar
  Percent Growth: 55%
NCI-H23; NCI-H23, Log10 concentration −5.0 Molar
  Percent Growth: 60%
NCI-H23; NCI-H23, Log10 concentration −6.0 Molar
  Percent Growth: 84%
NCI-H23; NCI-H23, Log10 concentration −7.0 Molar
  Percent Growth: 97%
NCI-H23; NCI-H23, Log10 concentration −8.0 Molar
  Percent Growth: 93%
HT29; HT29
  TGI: >1.00E−04 Molar
HT29; HT29, Log10 concentration −4.0 Molar
  Percent Growth: 20%
HT29; HT29, Log10 concentration −5.0 Molar
  Percent Growth: 22%
HT29; HT29, Log10 concentration −6.0 Molar
  Percent Growth: 70%
HT29; HT29, Log10 concentration −7.0 Molar
  Percent Growth: 93%
HT29; HT29, Log10 concentration −8.0 Molar
  Percent Growth: 91%
HT29; Homo sapiens, HT-29
  GI50: 2.63 µM
HT29; Homo sapiens, HT-29, HT29, read-out: LC50 (the source's name)
  CC50: > 100 µM
KM12; Homo sapiens, KM12
  GI50: 3.06 µM
KM12; Homo sapiens, KM12, RM12, read-out: LC50 (the source's name)
  CC50: > 100 µM
KM12; RM12
  TGI: >1.00E−04 Molar
KM12; RM12, Log10 concentration −4.0 Molar
  Percent Growth: 36%
KM12; RM12, Log10 concentration −5.0 Molar
  Percent Growth: 41%
KM12; RM12, Log10 concentration −6.0 Molar
  Percent Growth: 59%
KM12; RM12, Log10 concentration −7.0 Molar
  Percent Growth: 91%
KM12; RM12, Log10 concentration −8.0 Molar
  Percent Growth: 95%
LOX IMVI
  TGI: >1.00E−04 Molar
LOX IMVI; Homo sapiens
  GI50: 4.3 µM
LOX IMVI; Homo sapiens, read-out: LC50 (the source's name)
  CC50: > 100 µM
LOX IMVI; Log10 concentration −4.0 Molar
  Percent Growth: 35%
LOX IMVI; Log10 concentration −5.0 Molar
  Percent Growth: 26%
LOX IMVI; Log10 concentration −6.0 Molar
  Percent Growth: 91%
LOX IMVI; Log10 concentration −7.0 Molar
  Percent Growth: 103%
LOX IMVI; Log10 concentration −8.0 Molar
  Percent Growth: 98%
M14; Homo sapiens, M14
  GI50: 0.045 µM
M14; Homo sapiens, M14, read-out: LC50 (the source's name)
  CC50: > 100 µM
M14; M14
  TGI: >1.00E−04 Molar
M14; M14, Log10 concentration −4.0 Molar
  Percent Growth: 30%
M14; M14, Log10 concentration −5.0 Molar
  Percent Growth: 37%
M14; M14, Log10 concentration −6.0 Molar
  Percent Growth: 75%
M14; M14, Log10 concentration −7.0 Molar
  Percent Growth: 93%
M14; M14, Log10 concentration −8.0 Molar
  Percent Growth: 99%
SK-MEL-2; Homo sapiens, SK-MEL-2
  GI50: > 100 µM
SK-MEL-2; Homo sapiens, SK-MEL-2, read-out: LC50 (the source's name)
  CC50: > 100 µM
SK-MEL-2; SK-MEL-2
  TGI: >1.00E−04 Molar
SK-MEL-2; SK-MEL-2, Log10 concentration −4.0 Molar
  Percent Growth: 71%
SK-MEL-2; SK-MEL-2, Log10 concentration −5.0 Molar
  Percent Growth: 74%
SK-MEL-2; SK-MEL-2, Log10 concentration −6.0 Molar
  Percent Growth: 95%
SK-MEL-2; SK-MEL-2, Log10 concentration −7.0 Molar
  Percent Growth: 94%
SK-MEL-2; SK-MEL-2, Log10 concentration −8.0 Molar
  Percent Growth: 102%
A498; A498
  TGI: >1.00E−04 Molar
A498; A498, Log10 concentration −4.0 Molar
  Percent Growth: 54%
A498; A498, Log10 concentration −5.0 Molar
  Percent Growth: 64%
A498; A498, Log10 concentration −6.0 Molar
  Percent Growth: 87%
A498; A498, Log10 concentration −7.0 Molar
  Percent Growth: 102%
A498; A498, Log10 concentration −8.0 Molar
  Percent Growth: 95%
A498; Homo sapiens, A498
  GI50: > 100 µM
A498; Homo sapiens, A498, read-out: LC50 (the source's name)
  CC50: > 100 µM
RXF 393; Homo sapiens, RXF 393
  GI50: 3.4 µM
RXF 393; Homo sapiens, RXF 393, read-out: LC50 (the source's name)
  CC50: > 100 µM
RXF 393; RXF 393
  TGI: >1.00E−04 Molar
RXF 393; RXF 393, Log10 concentration −4.0 Molar
  Percent Growth: 20%
RXF 393; RXF 393, Log10 concentration −5.0 Molar
  Percent Growth: 23%
RXF 393; RXF 393, Log10 concentration −6.0 Molar
  Percent Growth: 81%
RXF 393; RXF 393, Log10 concentration −7.0 Molar
  Percent Growth: 97%
RXF 393; RXF 393, Log10 concentration −8.0 Molar
  Percent Growth: 90%
[4]; Homo sapiens
  GI50: 7.81 µM
[4]; Homo sapiens, OO-31, read-out: LC50 (the source's name)
  CC50: > 100 µM
[4]; OO-31
  TGI: >1.00E−04 Molar
[4]; OO-31, Log10 concentration −4.0 Molar
  Percent Growth: 43%
[4]; OO-31, Log10 concentration −5.0 Molar
  Percent Growth: 43%
[4]; OO-31, Log10 concentration −6.0 Molar
  Percent Growth: 107%
[4]; OO-31, Log10 concentration −7.0 Molar
  Percent Growth: 94%
[4]; OO-31, Log10 concentration −8.0 Molar
  Percent Growth: 98%
BT-549; BT-549
  TGI: >1.00E−04 Molar
BT-549; BT-549, Log10 concentration −4.0 Molar
  Percent Growth: 61%
BT-549; BT-549, Log10 concentration −5.0 Molar
  Percent Growth: 75%
BT-549; BT-549, Log10 concentration −6.0 Molar
  Percent Growth: 90%
BT-549; BT-549, Log10 concentration −7.0 Molar
  Percent Growth: 99%
BT-549; BT-549, Log10 concentration −8.0 Molar
  Percent Growth: 95%
BT-549; Homo sapiens, BT-549
  GI50: > 100 µM
BT-549; Homo sapiens, BT-549, read-out: LC50 (the source's name)
  CC50: > 100 µM
